From paper PMC4220649 (Blood Cancer Journal, 2014)

How the values were obtained:
[1] = Urine pharmacokinetics of ixazomib; format: in vivo, human
[2] = test system: patients with relapsed or refractory MM; settings: cited from earlier work
[3] = test system: patients with relapsed or refractory MM; settings: twice-weekly oral ixazomib; cited from earlier work
[4] = test system: patients with relapsed or refractory light-chain amyloidosis; settings: weekly oral ixazomib; cited from earlier work

## CC(C)C[C@H](NC(=O)CNC(=O)c1cc(Cl)ccc1Cl)B(O)O [ixazomib]
[1]; 25 patients, days 1 and 15, 0 to 4 h
  Fraction of ixazomib excreted unchanged in urine: < 1 % of the administered dose
[1]; human, urine, intravenous
  CL renal: < 8.5 mL/min
[2]; weekly oral ixazomib in MM
  Any-grade drug-related PN, patients: 20%
  Drug-related grade 3 PN, patients: 2%
[2]; weekly oral ixazomib, relapsed or refractory MM
  Rate of drug-related AEs in the Skin and subcutaneous tissue disorders System Organ Class: 22%
[3]
  Rate of drug-related rash: 28%
  Rate of drug-related skin and subcutaneous tissue disorders: 40%
[4]
  Rate of all-cause rash/maculopapular rash: 18%
